In brackets after ≈: the same amount, converted by molar mass. Where two headings read alike, the source gives them in different places. No end group written: not given here.
Experiments:
[1] = test system: S. aureus clinical strain 031S; design: method as in earlier work; conditions: clinical isolate 031S, skin; cited from earlier work
[2] = test system: S. aureus clinical strain 009S; design: method as in earlier work; conditions: clinical isolate 009S, skin; cited from earlier work
[3] = test system: S. aureus clinical strain 004N (MRSA); design: method as in earlier work; conditions: clinical isolate 004N (MRSA), nasal swab; cited from earlier work
[4] = test system: S. aureus clinical strain 015N (MRSA); design: method as in earlier work; conditions: clinical isolate 015N (MRSA), nasal swab; cited from earlier work
[5] = test system: S. aureus clinical strain 043SC (MRSA); design: method as in earlier work; conditions: clinical isolate 043SC (MRSA), skin of patient with furuncle folliculitis; cited from earlier work
[6] = test system: S. aureus clinical strain 060S; design: method as in earlier work; conditions: clinical isolate 060S, skin; cited from earlier work
[7] = test system: S. aureus ATCC 33591 (MRSA); test: microbe, parasite or virus in culture; conditions: Staphylococcus aureus, ATCC33591|MRSA
Text: (§1) Clinical S. aureus strains were collected from patients with atopic dermatitis during their visits to the Outpatient Clinic and hospitalization in the Department of Dermatology, Venereology and Allergology at Medical University of Gdańsk (following the approval from the ethics committee, Approval Number NKBBN/242–477/2014). Reference strains of S. aureus ATCC 25923, S. aureus ATCC 33591, S. aureus ATCC 9144, and S. aureus ATCC 12598 were obtained from the American Type Culture Collection. All the strains were stored at − 80 °C in Roti®-Store cryo vials (Carl Roth GmbH, Karlsruhe, Germany) and before the tests were transferred into fresh Mueller–Hinton Medium (BioMaxima, Lublin, Poland) and incubated for 24 h at 37 °C. Subsequently, each bacterial inoculum was seeded on Mueller–Hinton agar plates (BioMaxima) and incubated again for 24 h. The cultures prepared in this way were used in further antimicrobial assays. Minimum inhibitory concentrations (MICs) were determined according to the Clinical and Laboratory Standards Institute recommendations. […] The experiments were conducted on 96-well microtiter plates, with a final volume of 100 μL. Additionally, in the case of daptomycin, the medium was supplemented with Ca^2+ (50 mg/L). Cell densities were adjusted spectrophotometrically (Multiskan™ GO Microplate Spectrophotometer, Thermo Scientific) at 600 nm. The MICs were taken as the lowest drug concentration at which a visible growth of the microorganisms was inhibited. Minimum biofilm eliminating concentrations (MBECs) were determined on 96-well flat-bottomed microtiter polystyrene plates with resazurin (7-hydroxy-3H-phenoxazin-3-one 10-oxide sodium salt) as a cell viability reagent. To do this, the plates were filled with 100 μL of the initial inoculums of bacteria (0.5 × 10^7 CFU/mL) in the Mueller–Hinton broth and incubated for 24 h at 37 °C. […] After 24 h of incubation, 20 μL of resazurin (4 mg/mL) was added to each well and the MBEC values were read. Minimum biofilm inhibitory concentrations (MBICs) were also determined on 96-well flat-bottomed microtiter polystyrene plates as described previously. To do this, 50 μL of the compounds in the concentration range, diluted MHB, were prepared. Subsequently, the 50 μL of the staphylococcal inoculums were added to reach the same density of bacteria as that in the MBEC assay. After 24 h of incubation at 37 °C, the wells were rinsed three times with PBS and the fresh medium (100 μL) with resazurin (0.6 mg/mL) was added. Then, after 1 h of incubation, MBICs were read. […] All experiments were conducted in triplicate.
(§2) Formation of the biofilm inside the PDMS flow chambers was performed using three peristaltic pumps working simultaneously (LP-pump, Kamush, Lipopharm, Poland) and sterile Tygon® 3350 silicone hoses (2.4 × 0.8 × 0.8 mm) with a length of 30 and 50 cm for inlet and outlet, respectively. Bacterial suspensions were prepared (0.5 × 10^7 CFU/mL) in sterile 50-mL test tubes, which were placed in a heating block at 37 °C. Before experiments, all channels were assessed for tightness and sterilized using a 70% 2-propanol solution (10 min, flow rate 1 mL/min) and rinsed with sterile PBS solution (10 min, flow 0.1 mL/min). The formation of biofilm inside the channels was divided into three stages: (1) adhesion—at this stage S. aureus suspensions were passed through the channels for 4 h at a flow rate of 0.1 mL/min; (2) rinsing—the previously used hoses were replaced with new sterile ones, and the channels were rinsed with sterile PBS solution for 10 min at a flow rate of 0.1 mL/min; (3) biofilm growth—after flushing the channels, the silicone hoses were placed in tubes with MHB medium, which was passed through the channels for 24 h at a flow rate of 0.1 mL/min. All experiments included growth and sterility controls.
(§3) This assay was conducted also on the S. aureus ATCC 25923 and S. aureus 33,591 (MRSA) strains.

[8] = test system: S. aureus ATCC 25923; test: microbe, parasite or virus in culture; conditions: Staphylococcus aureus
Text: as §1, §2, §3

[9] = test system: S. aureus clinical strain 051N (MRSA); design: method as in earlier work; conditions: clinical isolate 051N (MRSA), nasal swab; cited from earlier work
[10] = test system: S. aureus clinical strain 005S; design: method as in earlier work; conditions: clinical isolate 005S, skin; cited from earlier work
[11] = test system: S. aureus clinical strain 030N; design: method as in earlier work; conditions: clinical isolate 030N, nasal swab; cited from earlier work
[12] = test system: S. aureus clinical strain 015N (MRSA) biofilm; conditions: clinical strain 015N biofilm, 24 h
Text: as §1

[13] = test system: S. aureus clinical strain 004N (MRSA) biofilm; conditions: clinical strain 004N biofilm, 24 h
Text: as §1

[14] = test system: S. aureus clinical strain 043SC (MRSA); conditions: 24 h
Text: as §1

[15] = test system: S. aureus clinical strain 043SC (MRSA) biofilm; conditions: clinical strain 043SC biofilm, 24 h
Text: as §1

[16] = test system: S. aureus ATCC 33591 (MRSA); conditions: ATCC 33591, 24 h
Text: as §1

[17] = test system: S. aureus clinical strain 015N (MRSA); conditions: 24 h
Text: as §1

[18] = test system: reference and clinical strains of staphylococci (S. aureus); conditions: 24 h
Text: as §1

[19] = test system: S. aureus clinical strain 004N (MRSA); conditions: 24 h
Text: as §1

[20] = test system: biofilm of reference and clinical strains of staphylococci (S. aureus); conditions: 24 h
Text: as §1

[21] = test system: S. aureus clinical strain 051N (MRSA) biofilm; conditions: clinical strain 051N biofilm, 24 h
Text: as §1

[22] = test system: S. aureus ATCC 33591 (MRSA) biofilm; conditions: ATCC 33591, 24 h
Text: as §1

[23] = test system: S. aureus clinical strain 051N (MRSA); conditions: 24 h
Text: as §1

[24] = test system: human keratinocytes (HaCaT); format: cell-based; conditions: 24 h
Protocol: To evaluate the cytotoxicity of the peptides (IC50), the classic MTT assay on 96-well plates was performed for human keratinocytes (HaCaT) which were acquired from the ATCC. The assay utilizes colorimetric determination of the cell metabolic activity, and the color intensity reflects the number of live cells that can be measured spectrophotometrically. […] DMSO was added to the control cells at a final concentration of 1.0% (v/v), which was related to the maximum concentration of the solvent compounds used in the experiment. After 24 h of incubation at 37 °C (humidified 5% CO2 incubator) with the peptides, a medium containing 1 mg/mL of MTT was added to the wells up to a final concentration of 0.5 mg/mL. Subsequently, the plates were incubated at 37 °C for 4 h. Then, the medium was aspirated, and the formazan product was solubilized with DMSO. The background absorbance at 630 nm was subtracted from that at 570 nm for each well (Epoch, BioTek Instruments, USA). Six replicates were conducted for each concentration. All experiments were repeated at least twice and the resulting IC50 values were calculated with GraFit 7 software (v. 7.0, Erithacus, Berkley, CA, USA).

In the case of `CN[C@H](CC(C)C)C(=O)N[C@H]1C(=O)N[C@@H](CC(N)=O)C(=O)N[C@H]2C(=O)N[C@H]3C(=O)N[C@H](C(=O)N[C@H](C(=O)O)c4cc(O)cc(O)c4-c4cc3ccc4O)[C@H](O)c3ccc(c(Cl)c3)Oc3cc2cc(c3O[C@@H]2O[C@H](CO)[C@@H](O)[C@H](O)[C@H]2O[C@H]2C[C@](C)(N)[C@H](O)[C@H](C)O2)Oc2ccc(cc2Cl)[C@H]1O` [Vancomycin], the “Antimicrobial susceptibility (MIC)” value [1] is listed as 0.25 mg/L, the “Antimicrobial susceptibility (MIC)” value [2] is listed as 0.25 mg/L and the “Antimicrobial susceptibility (MIC)” value [3] is listed as 0.5 mg/L. For the same compound, the “Antimicrobial susceptibility (MIC)” value [4] was 1 mg/L, the “Antimicrobial susceptibility (MIC)” value [5] was 0.5 mg/L and the “Antimicrobial susceptibility (MIC)” value [6] was 0.5 mg/L. The MIC ([7]; 0 h, S. aureus ATCC 33591 (MRSA), time 0 h (baseline, before peptide exposure)) was 1 mg/L (≈ 0.69 µM), the MIC ([7]; 24 h, S. aureus ATCC 33591 (MRSA) biofilm treated under flow with Omiganan (half MBEC) for 24 h) was 1 mg/L (≈ 0.69 µM) and the MIC ([7]; 24 h, S. aureus ATCC 33591 (MRSA) biofilm treated under flow with Retro-Omiganan (half MBEC) for 24 h) was 1 mg/L (≈ 0.69 µM). The MIC ([7]; 48 h, S. aureus ATCC 33591 (MRSA) biofilm treated under flow with Omiganan (half MBEC) for 48 h) was 1 mg/L (≈ 0.69 µM), the MIC ([7]; 48 h, S. aureus ATCC 33591 (MRSA) biofilm treated under flow with Retro-Omiganan (half MBEC) for 48 h) was 1 mg/L (≈ 0.69 µM) and the MIC ([7]; 72 h, S. aureus ATCC 33591 (MRSA) biofilm treated under flow with Omiganan (half MBEC) for 72 h) was 1 mg/L (≈ 0.69 µM). For the same compound, the MIC ([7]; 72 h, S. aureus ATCC 33591 (MRSA) biofilm treated under flow with Retro-Omiganan (half MBEC) for 72 h) was 1 mg/L (≈ 0.69 µM), the MIC ([8]; ATCC25923, 0 h, S. aureus 25923, time 0 h (baseline, before peptide exposure)) was 1 mg/L (≈ 0.69 µM) and the MIC ([8]; ATCC25923, 24 h, S. aureus 25923 biofilm treated under flow with Omiganan (half MBEC) for 24 h) was 1 mg/L (≈ 0.69 µM). For the same compound, the MIC ([8]; ATCC25923, 24 h, S. aureus 25923 biofilm treated under flow with Retro-Omiganan (half MBEC) for 24 h) was 1 mg/L (≈ 0.69 µM), the MIC ([8]; ATCC25923, 48 h, S. aureus 25923 biofilm treated under flow with Omiganan (half MBEC) for 48 h) was 1 mg/L (≈ 0.69 µM) and the MIC ([8]; ATCC25923, 48 h, S. aureus 25923 biofilm treated under flow with Retro-Omiganan (half MBEC) for 48 h) was 1 mg/L (≈ 0.69 µM). The MIC ([8]; ATCC25923, 72 h, S. aureus 25923 biofilm treated under flow with Omiganan (half MBEC) for 72 h) was 1 mg/L (≈ 0.69 µM), the MIC ([8]; ATCC25923, 72 h, S. aureus 25923 biofilm treated under flow with Retro-Omiganan (half MBEC) for 72 h) was 1 mg/L (≈ 0.69 µM) and the “Antimicrobial susceptibility (MIC)” value [9] was 0.5 mg/L. For the same compound, the “Antimicrobial susceptibility (MIC)” value [10] was 0.125 mg/L and the “Antimicrobial susceptibility (MIC)” value [11] was 2 mg/L.
KRRWPWWPWRLI-NH2 [Retro-omiganan AcO^−] gave an MBEC [12] of 32 µg/mL, an MBIC [12] of 16 µg/mL and an MBEC [13] of 32 µg/mL. For the same compound, the MBIC [13] was 16 µg/mL, the MIC [14] was 16 mg/L and the MBEC [15] was 32 µg/mL. For the same compound, the MBIC [15] was 16 µg/mL, the MIC [16] was 16 mg/L and the MIC [17] was 16 mg/L. The “mean MIC (initial values)” value [18] was 10.00 mg/L, the MIC [19] was 16 mg/L and the “mean MBEC (initial values)” value [20] was 32.00 µg/mL. It also gave an MBEC [21] of 64 µg/mL, an MBIC [21] of 32 µg/mL and an MBEC [22] of 32 µg/mL. For the same compound, the MBIC [22] was 32 µg/mL, the MIC [23] was 16 mg/L and the IC50 [24] was 23.66 mg/L.

Source: paper PMC12055641, “The Study of Antistaphylococcal Potential of Omiganan and Retro-Omiganan Under Flow Conditions” (Probiotics and Antimicrobial Proteins, 2024)
